Consider eleven compounds from patent EP2746402A1, “Method of prognosis of Alzheimers disease and substrates for use therein” (Academisch Medisch Centrum, priority 2013, dated 2014).

Positions of bridges follow the written chain, without caps; N, C: chain ends. Non-standard residues stand in square brackets, D forms with d. Residues, ends and D or L forms follow the SMILES beside them. *: point of attachment. Ileψ(thiazoline)Cys = CC[C@H](C)[C@H](N)C1=N[C@H](C(=O)*)CS1; Sta = CC(C)C[C@H](N)[C@@H](O)CC(=O)O; dOrn = NCCC[C@@H](N)C(=O)O; Isovaleryl = CC(C)CC(=O)*; Cbz = O=C(OCc1ccccc1)*; CH2Cl = ClC*

Type in all cases: biochemical
For assay [1], the system named is HEK293 cytosolic fractions. Description: Quenched Aβ peptide (qAβ) degradation assay in HEK293 cytosolic fractions, with and without protease inhibitors. The conditions noted are these: protease inhibitor added to HEK293 cytosolic fractions prior to qAβ, 30 minutes at 4 °C; inhibitor concentrations 20-200 µM; fluorescence at 37°C. The source says:
We developed a sensitive Aβ degradation assay by generating a quenched Aβ40 peptide containing a small fluorescein group and a quenching dabcyl group (Reits et al., 2004) flanking the KLVFF sequence present in the middle of the Aβ peptides that is a critical region for aggregation (Fig. 1A) (Tjernberg et al., 1996). A quenched Aβ42 peptide was difficult to synthesize as the peptide was too aggregation-prone during synthesis, preventing efficient labeling with the small fluorophore. […] The qAβ peptides were added to cytoplasmic fractions of mildly lysed HEK293 cells, thereby preventing contamination with extracellular membrane-bound or lysosomal proteases, resulting in an increase in fluorescent signal (Fig. 1B). To identify which proteases play a role in this Aβ clearance machinery, different protease inhibitors were added to the cytosolic fractions prior to adding the qAβ. […]
HEK cells were lysed in 25 µM digitonin (Sigma) in KMH buffer (110 mM KAc, 2 mM MgAc and 20 mM Hepes-KOH, pH 7.2). Human and mouse brain hippocampal tissue was lysed in ± 400 µl (adjusted to the amount of tissue) of homogenization buffer (50 mM Tris/HCl pH 7.5, 250 mM sucrose, 5 mM MgCl2 and freshly added 2 mM ATP, 1 mM DTT and 0.025 % digitonin (Sigma)). Tissue was homogenized on ice in homogenization buffer using a homogenizer. Cell lysates were incubated for 30 minutes on ice and centrifuged for 15 minutes at 14.000 rpm at 4 °C.
HFIP-treated aliquots of Aβ40 were resuspended in DMSO followed by sonication for 10 minutes, immediately before use. 75 ng (340 nM) of quenched Aβ40 was added to 5 µg protein from the cell lysates in KMH buffer (110 mM KAc, 2 mM MgAc and 20 mM Hepes-KOH, pH 7.2) to a total volume of 50 µl. Protease inhibitors (100 µM 1,10-phenanthroline, 200 µM bacitracin, 100 µM E64, 20 µM MG-132, 100 µM puromycin, 100 µM PMSF, 200 µM pepstatin A (all Sigma), 100 µM AAF-CMK, 100 µM amastatin or 50 µM bestatin (Enzo lifesciences AG), 50 µM PAQ-22 (Wako Chemicals), 100 µM Cpp-AAF-pNa (InstruChem), 50 µM PAQ-22 (SopaChem) and 100 µM butabindide (Tocris Bioscience)) were added to the cell lysates and incubated for 30 minutes at 4 °C. Degradation of the peptide was analyzed at 37°C using the FLUOstar OPTIMA (BMG Labtec.).

For a further assay, the system named is SH-SY5Y cell lysates. As to the kind of experiment: Degradation of the quenched 12-mer peptide in SH-SY5Y cell lysates. From the text: To proof that shorter variants of the substrates of the invention may also be used as a suitable substrate to measure IDE activity, we analyzed the degradation of a substrate having the amino acid sequence HQKLVFFACDBC, which contains the KLVFF region flanked by a quenched and fluorophore. In addition, we examined the effect of bacitracine, the inhibitor for IDE, on the degradation of this 12-mer peptide (see Figure 5), as well as its ability to aggregate and form oligomers.
The 12-mer substrate having the amino acid sequence HQKLVFFACDCB (SEQ ID NO:10) containing a fluorophore and quencher was synthesized as described before (Reits et al., 2004), introducing a fluorescein at the cysteine (position 11) and a quenching dabcyl group at the lysine (position 3). The substrate was sonificated immediately before use and added to 5 µg cell lysate. KMH buffer (110 mM KAc, 2 mM MgAc and 20 mM Hepes-KOH, pH 7.2) was added to a total volume of 50 µl. Degradation of the substrate was analyzed at 37°C using the FLUOstar OPTIMA (BMG Labtec.).

Assay [2] relates to human hippocampal lysates. Description: Quenched Aβ peptide (qAβ) degradation assay in human hippocampal lysates at different Braak stages. Particulars: bacitracin added to hippocampal lysates prior to qAβ; all Braak stages. As to the method: Since the hippocampus is highly susceptible to Aβ accumulation, we examined whether the ability to degrade Aβ is affected in sporadic (sAD) using human hippocampal tissue of post-mortem brains with varying Braak stages. Included were Braak 0 (control, no AD) and Braak I-VI. When the ability to degrade qAβ was determined for each Braak stage (Fig. 2A, solid bars), a strong decrease in qAβ degradation rate was already observed in Braak stage I (t-test, two-tailed, p=0.03), which further decreased during the progression to Braak stage II (t-test, two-tailed, p=0.01). […] Also oligomerized Aβ was less well degraded with increasing Braak stage (Fig. 2B). AD progression can also be classified by plaque distribution in well defined brain areas giving a particular amyloid score, ranging from O (no plaques) to C. Similar to increasing Braak stages, the rate of qAβ degradation decreased with increasing amyloid score, being significant for hippocampal fractions of brains classified with amyloid score C (t-test, two-tailed, p=0.017) (Fig. 2C). […]
HFIP-treated aliquots of Aβ40 were resuspended in DMSO followed by sonication for 10 minutes, immediately before use. […] Degradation of the peptide was analyzed at 37°C using the FLUOstar OPTIMA (BMG Labtec.).

On to `c1cnc2c(c1)ccc1cccnc12` [phenantroline, 1,10-phenanthroline], for which the “effect on qAβ degradation” value in assay [1] is “significantly decreased”.

In the case of `CC(C)C[C@H](NC(=O)[C@H]1O[C@@H]1C(=O)O)C(=O)NCCCCN=C(N)N` [E64], the “effect on qAβ degradation” value in assay [1] is on record as “did not show any effect”.

As for `CC(C)C[C@H](NC(=O)[C@@H](O)[C@H](N)Cc1ccccc1)C(=O)O` [bestatin], the “effect on qAβ degradation” value in assay [1] is on record as “did not show any effect”.

Take `CCCCNC(=O)[C@@H]1Cc2ccccc2N1C(=O)[C@@H](N)CC` [butabindide]: the “effect on qAβ degradation” value in assay [1] is “did not show any effect”.

In the case of `O=S(=O)(F)Cc1ccccc1` [PMSF], the “effect on qAβ degradation” value in assay [1] was “did not show any effect”.

As for `CC(C)C[C@@H](N)[C@H](O)C(=O)N[C@H](C(=O)N[C@H](C(=O)N[C@@H](CC(=O)O)C(=O)O)C(C)C)C(C)C` [amasatin], in assay [1], the “effect on qAβ degradation” value is recorded as “did not show any effect”.

`CC(C)C[C@@H](C=O)NC(=O)[C@H](CC(C)C)NC(=O)[C@H](CC(C)C)NC(=O)OCc1ccccc1` [MG132] (Cbz-Leu-Leu-Leu-aldehyde): in assay [1], the “effect on qAβ degradation” value was “did not show any effect”.

In the case of `CC[C@H](C)[C@H](N)C1=N[C@H](C(=O)N[C@@H](CC(C)C)C(=O)N[C@H](CCC(=O)O)C(=O)N[C@H](C(=O)N[C@H]2CCCCNC(=O)[C@H](CC(N)=O)NC(=O)[C@@H](CC(=O)O)NC(=O)[C@H](Cc3cnc[nH]3)NC(=O)[C@@H](Cc3ccccc3)NC(=O)[C@H]([C@@H](C)CC)NC(=O)[C@@H](CCCN)NC2=O)[C@@H](C)CC)CS1` [bacitracin] ({Ileψ(thiazoline)Cys}-L[dE]IK[dOrn]I[dF]H[dD]N; lactam 4-C), the “effect on degradation of the 12-mer peptide” value with SH-SY5Y cell lysates (bacitracine added to SH-SY5Y cell lysates, monomeric 12-mer) is reported as “inhibited”. Moreover, the “effect on qAβ degradation” value in assay [1] is “reduced”. The “ability to degrade qAβ” value in assay [2] is reported as “strongly reduced”.

HQKLVFFACDCB [12-mer peptide]: the “plateau level of fluorescence after aggregation” value in the assay with SH-SY5Y cell lysates (12-mer peptide incubated at 37°C (3 HR in PBS) before addition to SH-SY5Y cell lysates) is “lower plateau level”. For the same compound, the “degradation of the 12-mer peptide” value in the assay with SH-SY5Y cell lysates (monomeric form added to SH-SY5Y cell lysates) was “degradation could be observed”.

Regarding `C[C@H](N)C(=O)N[C@@H](C)C(=O)N[C@@H](Cc1ccccc1)C(=O)CCl` [AAF-CMK] (H-Ala-Ala-Phe-CH2Cl), in assay [1], the “effect on qAβ degradation” value is “did not show any effect”.

Consider `CC(C)CC(=O)N[C@H](C(=O)N[C@H](C(=O)N[C@@H](CC(C)C)[C@@H](O)CC(=O)N[C@@H](C)C(=O)N[C@@H](CC(C)C)[C@@H](O)CC(=O)O)C(C)C)C(C)C` [pepstatin] (Isovaleryl-VV[Sta]A[Sta]-OH), for which the “effect on qAβ degradation” value in assay [1] is listed as “did not show any effect”.
